The values below come from BindingDB's records for doi:10.1021/acsmedchemlett.5b00177 (Dart Neuroscience, 2015).

Sequence of Methionine aminopeptidase 2 (Homo sapiens) (P50579 whole entry, looked up): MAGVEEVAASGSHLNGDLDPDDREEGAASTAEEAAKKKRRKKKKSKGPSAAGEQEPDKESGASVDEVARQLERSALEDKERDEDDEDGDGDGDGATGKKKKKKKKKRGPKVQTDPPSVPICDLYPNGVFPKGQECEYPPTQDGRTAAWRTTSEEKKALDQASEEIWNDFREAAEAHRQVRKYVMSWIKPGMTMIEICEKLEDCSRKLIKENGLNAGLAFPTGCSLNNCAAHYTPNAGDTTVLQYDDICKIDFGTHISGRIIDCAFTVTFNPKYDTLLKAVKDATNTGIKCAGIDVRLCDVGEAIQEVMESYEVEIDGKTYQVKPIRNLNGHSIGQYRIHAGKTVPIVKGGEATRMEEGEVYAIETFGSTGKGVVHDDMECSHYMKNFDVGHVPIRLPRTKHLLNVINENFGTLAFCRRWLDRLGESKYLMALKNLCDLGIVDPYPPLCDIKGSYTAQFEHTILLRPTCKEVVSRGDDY

This assay addresses Methionine aminopeptidase 2 (Homo sapiens) (UniProt P50579). The experiment in a line: Inhibition of human METAP2 using Met-Pro-Arg-pNa substrate by para-nitroanilide chromophore release detection assay.
For `CN1CCN(c2ccc(-c3cnc4c5[nH]ncc5c(=O)n(CC(F)(F)F)c4c3)cn2)CC1`, the concentration for half-maximal inhibition (IC50) (as a rule, the midpoint of a concentration-inhibition curve) was found to be 5 µM.

`O=c1c2cn[nH]c2c2cnc(-c3ncccc3Cl)cc2n1CC(F)(F)F` displayed an IC50 of 13 µM.

As to `O=c1c2cn[nH]c2c2ncc(-c3ccccc3C(F)(F)F)cc2n1CC(F)(F)F`, inhibition was half-maximal at 20 µM (IC50).

For the compound `CN1CCN(c2cncc(-c3cnc4c5[nH]ncc5c(=O)n(CC(F)(F)F)c4c3)c2)CC1`, the IC50 was 24 µM.
